Like-named read-outs stand apart in the source and are kept apart here. Bounds are passed on as bounds.

In one assay the target is Smurf-1 (Homo sapiens, UniProt Q9HCE7). The experiment in a line: biochemical. Format: biochemical. From the text: (§1) To determine the HECT E3 ligase selectivity of the compounds, a panel of biochemical HECT E3 ligase autoubiquitinylation assays was employed (Smurf-1, Smurf-2, WWP1, WWP2, ITCH, Nedd4, Nedd4L and E6AP). The conjugation of ubiquitin to a protein substrate is a multistep process. In an initial ATP-requiring step, a thioester bond is formed between the carboxyl terminus of ubiquitin and an internal cystein residue of the ubiquitin-activating enzyme (E1). Activated ubiquitin is then transferred to a specific cystein residue of an ubiquitin-conjugating enzyme (E2). E2s donate ubiquitin to a HECT E3 ligase (E3) from which it is transferred to the substrate protein. HECT E3 ligases can auto-ubiquitinylate. This event is detected in the TR-FRET (Time-Resolved Fluorescence Resonance Energy Transfer) assay used in this panel. The reaction mix contains E1, E2, tagged-E3, biotin-conjugated ubiquitin, the compound and ATP in a suitable buffer and is incubated for 45 minutes to allow auto-ubiquitinylation of the E3 ligase. To measure the extent of ubiquitinylated E3 ligase by TR-FRET, the donor fluorophore Europium cryptate (Eu3+ cryptate), conjugated to streptavidin which subsequently binds to biotinylated ubiquitin, and the modified allophycocyanin XL665 (HTRF® primary acceptor fluorophore) coupled to a tag-specific antibody (HA, His or GST), which recognizes the respective E3 ligase fusion proteins, are added after the reaction is complete. When these two fluorophores are brought together by a biomolecular interaction (in this case ubiquitinylation of the E3 ligase), a portion of the energy captured by the Cryptate during excitation is released through fluorescence emission at 620 nm, while the remaining energy is transferred to XL665. This energy is then released by XL665 as specific fluorescence at 665 nm. Light at 665 nm is emitted only through FRET with Europium.
Sequence of Smurf-1 (Q9HCE7 whole entry): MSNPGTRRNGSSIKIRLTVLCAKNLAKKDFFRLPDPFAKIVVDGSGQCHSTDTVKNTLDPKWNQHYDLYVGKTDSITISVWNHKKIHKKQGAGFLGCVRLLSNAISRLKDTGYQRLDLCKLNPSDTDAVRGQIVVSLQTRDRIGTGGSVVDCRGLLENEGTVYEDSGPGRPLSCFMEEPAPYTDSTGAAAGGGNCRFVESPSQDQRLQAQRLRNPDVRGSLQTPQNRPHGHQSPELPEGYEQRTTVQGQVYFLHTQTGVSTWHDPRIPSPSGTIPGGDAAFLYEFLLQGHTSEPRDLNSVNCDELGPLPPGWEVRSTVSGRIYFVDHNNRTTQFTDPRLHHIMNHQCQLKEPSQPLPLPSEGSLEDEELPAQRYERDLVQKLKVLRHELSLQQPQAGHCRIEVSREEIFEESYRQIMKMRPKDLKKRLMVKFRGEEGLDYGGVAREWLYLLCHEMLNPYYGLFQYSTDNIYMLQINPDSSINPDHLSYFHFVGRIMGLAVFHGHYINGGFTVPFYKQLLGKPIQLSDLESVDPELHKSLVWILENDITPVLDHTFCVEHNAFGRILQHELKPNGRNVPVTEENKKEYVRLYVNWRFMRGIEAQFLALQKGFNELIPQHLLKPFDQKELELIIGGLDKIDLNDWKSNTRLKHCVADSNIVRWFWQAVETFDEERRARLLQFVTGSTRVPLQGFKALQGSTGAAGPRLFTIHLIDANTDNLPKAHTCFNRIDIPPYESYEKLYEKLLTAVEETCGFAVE
(§2) Test and reference compounds are prepared at 180×[final] in 90% DMSO, and diluted 1:3 in 90% DMSO.
(§3) For the biochemical assay panel, 50 nl of the test compounds, reference compounds and buffer/DMSO control are transferred to the respective wells of a 384-well white GREINER “SMALL VOLUME” PS plate. The assay panel is run at room temperature on a Biomek FX liquid handling workstation. To the assay plates containing 50 nl compound or control solutions in 90% DMSO, 4.5 ul of E3 ligase solution were added per well, followed by 4.5 ul of the pre-incubated E1/E2/Ub mix or the pre-diluted ubiquitin (LOW control). Plates are shaken vigorously after each addition. In this assay the compound concentrations range from 3 nM to 10 uM in an 8-point dose-response curve.
(§4) After an incubation time of 45 min in the dark, the plates are transferred into the Pherastar fluorescence reader to measure the TR-FRET signal.

For another assay, the target named is Smurf-2 (Homo sapiens, UniProt Q9HAU4). As to the kind of experiment: HECT E3 ligase autoubiquitinylation TR-FRET assay, Smurf-2. Format: biochemical.
Sequence of Smurf-2 (Q9HAU4 whole entry, species assumed): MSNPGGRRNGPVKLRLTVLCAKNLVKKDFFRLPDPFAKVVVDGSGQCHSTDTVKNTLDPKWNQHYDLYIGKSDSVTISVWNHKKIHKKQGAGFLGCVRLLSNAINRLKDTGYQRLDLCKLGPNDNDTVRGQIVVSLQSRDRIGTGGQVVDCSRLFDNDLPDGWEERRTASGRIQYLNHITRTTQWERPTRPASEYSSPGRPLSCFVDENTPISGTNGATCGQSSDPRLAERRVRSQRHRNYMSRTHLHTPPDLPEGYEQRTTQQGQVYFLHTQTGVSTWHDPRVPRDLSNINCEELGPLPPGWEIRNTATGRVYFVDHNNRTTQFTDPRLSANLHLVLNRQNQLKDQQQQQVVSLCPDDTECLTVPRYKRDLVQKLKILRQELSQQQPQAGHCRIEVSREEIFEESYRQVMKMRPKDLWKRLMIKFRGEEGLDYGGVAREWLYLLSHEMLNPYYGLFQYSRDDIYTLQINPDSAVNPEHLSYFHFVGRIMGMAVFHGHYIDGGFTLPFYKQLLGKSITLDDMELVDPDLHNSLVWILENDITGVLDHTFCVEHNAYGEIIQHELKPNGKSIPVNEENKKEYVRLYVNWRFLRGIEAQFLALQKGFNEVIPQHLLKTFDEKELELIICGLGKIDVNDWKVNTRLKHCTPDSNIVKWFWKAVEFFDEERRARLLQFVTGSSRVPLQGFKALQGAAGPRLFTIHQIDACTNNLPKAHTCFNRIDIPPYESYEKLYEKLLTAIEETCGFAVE
Source text: as §1, §2, §3, §4

The mark [1] stands for this setting: biochemical autoubiquitinylation TR-FRET, 45 min incubation, 8-point dose-response 3 nM to 10 uM.
Where [2] appears, read: biochemical autoubiquitinylation TR-FRET, 45 min incubation, 8-point dose-response 3 nM to 10 uM, read-out: Smurf-2/IC50.

With `COc1ccc2c(c1)CCCc1c(C(=O)Nc3c(C)n(C)n(C4CCCCC4)c3=O)noc1-2` [Example 35, N-(2-cyclohexyl-1,5-dimethyl-3-oxo-2,3-dihydro-1H-pyrazol-4-yl)-8-methoxy-5,6-dihydro-4H-benzo[3,4]cyclohepta[1,2-d]isoxazole-3-carboxamide], the figures for the IC50 against Smurf-1 (setting [1]) and on Smurf-2 (setting [2]) were 0.0059 µM and 1.05 µM, respectively.
With `COc1ccc2c(c1)OCCCc1c(C(=O)Nc3c(C)n(C)n(C4CCCCC4)c3=O)noc1-2` [Example 54, N-(2-cyclohexyl-1,5-dimethyl-3-oxo-2,3-dihydro-1H-pyrazol-4-yl)-9-methoxy-5,6-dihydro-4H-benzo[2,3]oxocino[5,4-d]isoxazole-3-carboxamide], the IC50 at Smurf-1 was 0.192 µM; against Smurf-2, above 10 µM.
Regarding `COc1ccc2c(c1)CCCc1c(C(=O)Nc3c(C)n(C)n(C4CCCC4)c3=O)noc1-2` [Example 34, N-(2-cyclopentyl-1,5-dimethyl-3-oxo-2,3-dihydro-1H-pyrazol-4-yl)-8-methoxy-5,6-dihydro-4H-benzo[3,4]cyclohepta[1,2-d]isoxazole-3-carboxamide], the IC50 was 0.0292 µM on Smurf-1 (setting [1]) and 9.5 µM at Smurf-2 (setting [2]).
As for `COc1ccc2c(c1)CCCc1c(C(=O)Nc3c(C)n(C)n(CC4CCCCC4)c3=O)noc1-2` [Example 37, N-(2-(cyclohexylmethyl)-1,5-dimethyl-3-oxo-2,3-dihydro-1H-pyrazol-4-yl)-8-methoxy-5,6-dihydro-4H-benzo[3,4]cyclohepta[1,2-d]isoxazole-3-carboxamide], the IC50 at Smurf-1 (setting [1]) is 1.04 µM; on Smurf-2, above 10 µM.
Turning to `Cc1c(NC(=O)c2noc3c2CCCCc2ccccc2-3)c(=O)n(-c2ccccc2)n1C` [Example 51, N-(1,5-dimethyl-3-oxo-2-phenyl-2,3-dihydro-1H-pyrazol-4-yl)-4,5,6,7-tetrahydrobenzo[3,4]cycloocta[1,2-d]isoxazole-3-carboxamide], the IC50 on Smurf-1 (setting [1]) is 0.657 µM; against Smurf-2, above 10 µM.
Take `Cc1c(NC(=O)c2noc3c2CCc2cc(CC(C)C)ccc2-3)c(=O)n(-c2ccccc2)n1C` [Example 1, N-(1,5-Dimethyl-3-oxo-2-phenyl-2,3-dihydro-1H-pyrazol-4-yl)-7-isobutyl-4,5-dihydronaphtho[2,1-d]isoxazole-3-carboxamide]: the results for the IC50 against Smurf-1 (setting [1]) and on Smurf-2 (setting [2]) were 0.24 µM and 5.6 µM, respectively.
In the same order, the values of `COc1ccc2c(c1)CCCc1c(C(=O)Nc3c(C)n(C)n(-c4ccc(F)cc4)c3=O)noc1-2` [Example 2, N-(2-(4-Fluorophenyl)-1,5-dimethyl-3-oxo-2,3-dihydro-1H-pyrazol-4-yl)-8-methoxy-5,6-dihydro-4H-benzo[3,4]cyclohepta[1,2-d]isoxazole-3-carboxamide] are 0.41 µM and 8.55 µM.
Take `COc1ccc2c(c1)CCCc1c(C(=O)Nc3c(C(F)(F)F)n(C)n(-c4ccccc4)c3=O)noc1-2` [Example 38, 8-methoxy-N-(1-methyl-3-oxo-2-phenyl-5-(trifluoromethyl)-2,3-dihydro-1H-pyrazol-4-yl)-5,6-dihydro-4H-benzo[3,4]cyclohepta[1,2-d]isoxazole-3-carboxamide]: the IC50 was 0.865 µM on Smurf-1 (setting [1]) and above 10 µM against Smurf-2.
In the same order, the values of `COc1ccc2c(c1)CCCCc1c(C(=O)Nc3c(C)n(C)n(-c4ccccc4F)c3=O)noc1-2` [Example 53, N-(2-(2-fluorophenyl)-1,5-dimethyl-3-oxo-2,3-dihydro-1H-pyrazol-4-yl)-9-methoxy-4,5,6,7-tetrahydrobenzo[3,4]cycloocta[1,2-d]isoxazole-3-carboxamide] are 0.133 µM and above 10 µM.
In the same order, the values of `COc1ccc2c(c1)CCCc1c(C(=O)Nc3c(C)n(C)n(-c4ccc(Cl)cc4)c3=O)noc1-2` [Example 29, N-(2-(4-chlorophenyl)-1,5-dimethyl-3-oxo-2,3-dihydro-1H-pyrazol-4-yl)-8-methoxy-5,6-dihydro-4H-benzo[3,4]cyclohepta[1,2-d]isoxazole-3-carboxamide] are 1.06 µM and above 10 µM.
Take `Cc1c(NC(=O)c2noc3c2CCCc2cc(OC(F)(F)F)ccc2-3)c(=O)n(-c2ccccc2)n1C` [Example 39, N-(1,5-dimethyl-3-oxo-2-phenyl-2,3-dihydro-1H-pyrazol-4-yl)-8-(trifluoromethoxy)-5,6-dihydro-4H-benzo[3,4]cyclohepta[1,2-d]isoxazole-3-carboxamide]: the IC50 at Smurf-1 (setting [1]) turned out to be 0.2 µM; on Smurf-2 (setting [2]), 5.55 µM.
`COc1ccc(Cn2c(=O)c(NC(=O)c3noc4c3CCCc3cc(OC)ccc3-4)c(C)n2C)cc1` [Example 55, 8-methoxy-N-(2-(4-methoxybenzyl)-1,5-dimethyl-3-oxo-2,3-dihydro-1H-pyrazol-4-yl)-5,6-dihydro-4H-benzo[3,4]cyclohepta[1,2-d]isoxazole-3-carboxamide]: the IC50 was 9.9 µM on Smurf-1 (setting [1]) and above 10 µM on Smurf-2.

The values are drawn from patent US20170088546A1 (priority 2014, published 2017).
